Consider 13 compounds from PMC8789663 (The Journal of Biological Chemistry, 2021).

Assay [1] has as its system rat islets. Nature of the assay: Perifusion assay of rat islet GSIS, step-wise glucose increase 2.8 to 16.7 mM. Particulars: for block of potentiation of GSIS by GLP-1, PKC inhibitors: 10 µM; for potentiation of first and second phase GSIS by cyclic nucleotide analog prodrug: 10 μM, representative of six independent experiments; for block of potentiation of GSIS by GLP-1 (1 nM), PLC inhibitor or negative control: 1 µM, pretreatment for 40 min; for effect of PLC inhibitor or negative control alone on GSIS: 1 µM in Fig. S2.

The test system of a further assay is Epac1 and Epac2. Particulars: unconjugated Rp-8-Br-cAMPS; cited from earlier work. The text has this: (§1) A selective effect is possible based on our previous report that the cAMP antagonist prodrug Rp-8-Br-cAMPS-pAB abolished first-phase but not second-phase GSIS in response to glucose alone ([25]).
In assay [2] the test system is PKA. To be noted: unconjugated Rp-8-Br-cAMPS; cited from earlier work.
Excerpt: as §1

For assay [3], the system named is rat islets. The experiment in a line: Perifusion assay of rat islet GSIS, linear glucose gradient. The class given is cell-based, Sprague–Dawley rat.
Protocol: Monophasic insulin secretion from rat islets was measured in response to a linear gradient of glucose concentrations beginning at 3 mM and ending at 30 mM when delivered over a 50 min time course.
The panels A3–C3 illustrate box and whiskers AUC analyses with accompanying ANOVA derived p values where each symbol is the AUC value for the islets of a single perifusion chamber.
A further assay has as its system β-cell GSIS. To be noted: cited from earlier work.
Excerpt: as §1

For the next assay, the system named is Epac. To be noted: read-out: IC50, block of GLP-1-stimulated cAMP (H188); INS-1 832/13 cells transduced with H188, GLP-1 stimulated.
The target in assay [4] is endogenous rat GLP-1 receptor (rat (endogenous in INS-1 832/13 cells and rat islets)) (UniProt P32301).
Sequence of endogenous rat GLP-1 receptor (rat (endogenous in INS-1 832/13 cells and rat islets)) (P32301 22-463): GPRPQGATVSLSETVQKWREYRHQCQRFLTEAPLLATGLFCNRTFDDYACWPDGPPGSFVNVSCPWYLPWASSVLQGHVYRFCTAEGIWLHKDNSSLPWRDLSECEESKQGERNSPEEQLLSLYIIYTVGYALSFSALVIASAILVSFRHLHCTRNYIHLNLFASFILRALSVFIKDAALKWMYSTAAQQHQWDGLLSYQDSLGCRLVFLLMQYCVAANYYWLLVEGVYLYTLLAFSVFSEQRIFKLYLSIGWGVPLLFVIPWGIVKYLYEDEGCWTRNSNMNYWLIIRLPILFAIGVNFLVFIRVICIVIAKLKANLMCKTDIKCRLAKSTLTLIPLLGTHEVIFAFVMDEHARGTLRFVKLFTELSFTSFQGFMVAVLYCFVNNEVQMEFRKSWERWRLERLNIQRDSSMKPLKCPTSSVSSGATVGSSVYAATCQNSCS
The next assay concerns GcgR. To be noted: cited from earlier work.
The next assay relates to GLP-1R. To be noted: cited from earlier work.
In a further assay the test system is mouse islets. To be noted: cited from earlier work.
Another assay has as its system rat perfused pancreas. Particulars: ref 11 (Moens et al.); cited from earlier work.
Another assay has as its system islets. To be noted: raising levels of cAMP; cited from earlier work. The text has this:
Identifying the mechanism for this switch from cAMP-independent to cAMP-dependent insulin secretion is of great interest. Shibasaki et al. ([33]) reported a cAMP-regulated mechanism of insulin secretion that results from “restless newcomer” exocytosis in which Epac2 activation mobilizes cytoplasmic secretory granules so that they quickly transit to the plasma membrane for release without pausing in a “docked” state. When islets are stimulated with glucose alone, this newcomer exocytosis is more prominent during first-phase as compared with second-phase GSIS. Raising levels of cAMP by treatment ...

The test system of assay [5] is T1, PKA.
T1 construct: endogenous PKA, read out indirectly with FRET reporter AKAR3 (PKA substrate)
The experiment in a line: Live-cell FRET assay (435 nm excitation, 485/535 emission ratio, pH 7.4) with PKA substrate reporter AKAR3; inhibition of PKA activity stimulated by GLP-1. Format: cell-based, INS-1 832/13 cells transduced with AKAR3. To be noted: n = 12.

Where [6] appears, read: Rp-8-Br-cAMPS-pAB 10 μM, five independent experiments.

As to `Cn1cc(C2=C(c3cn(CCCSC(=N)N)c4ccccc34)C(=O)NC2=O)c2ccccc21` [Ro 31-8220], the “block of potentiation of GSIS by GLP-1, PKC inhibitors” value in the assay on rat islets [1] is “failed to block”.

As to `CO[C@@H]1[C@@H]2OP(=O)(OCOC(C)=O)OC[C@H]2O[C@H]1n1c(Sc2ccc(Cl)cc2)nc2c(N)ncnc21` (some centres unmarked) [8-pCPT-2′-O-Me-cAMP-AM], the “potentiation of first and second phase GSIS by cyclic nucleotide analog prodrug” value in the assay with rat islets [1] is on record as “potentiated”.

Consider `COc1ccc2c(c1)CC[C@@H]1[C@@H]2CC[C@]2(C)[C@@H](NCCCCCCN3C(=O)CCC3=O)CC[C@@H]12` [U73343], for which the “block of potentiation of GSIS by GLP-1 (1 nM), PLC inhibitor or negative control” value in the assay with rat islets [1] (GLP-1 1 nM) was “failed to block”. In addition, the “effect of PLC inhibitor or negative control alone on GSIS” value in the assay with rat islets [1] is “not reproduced”.

In the case of `Nc1ncnc2c1nc(Br)n2C1OC2COP(O)(=S)OC2C1O` (centres unmarked) [Rp-8-Br-cAMPS], in the assay on Epac1 and Epac2, the “inhibition of stimulatory effects of endogenous cAMP at Epac1 and Epac2” value is given as “competitively inhibits”. Besides, the “inhibition of stimulatory effects of endogenous cAMP at PKA” value in the assay with PKA [2] is “competitively inhibits”.

On to `CC(=O)Oc1ccc(CSP2(=O)OC[C@H]3O[C@@H](n4c(Br)nc5c(N)ncnc54)[C@H](O)[C@@H]3O2)cc1` (some centres unmarked) [Rp-8-Br-cAMPS-pAB], for which the “effect on glucagon-potentiated GSIS in the gradient assay” value in the assay on rat islets [3] (Rp-8-Br-cAMPS-pAB 10 μM vs glucagon 10 nM) is given as “blocked”. Also, the “effect on GSIS stimulated by a glucose gradient alone” value with rat islets [3] (Rp-8-Br-cAMPS-pAB 10 μM, three independent experiments) is reported as “failed to inhibit”. In the assay with β-cell GSIS, the “effect on first-phase GSIS in response to glucose alone” value is “abolished” and the “effect on second-phase GSIS in response to glucose alone” value is on record as “not”. In addition, in the assay on rat islets [1] (Rp-8-Br-cAMPS-pAB 10 μM), the “antagonist action versus 5 nM GLP-1 in comparison with 1 nM GLP-1” value is “weaker”. Moreover, the “block of potentiation of GSIS by glucagon” value in the assay on rat islets [1] (Rp-8-Br-cAMPS-pAB 10 μM vs 10 nM glucagon, three independent experiments) was “blocked”. In addition, the “block of potentiation of first and second phase GSIS by GLP-1” value in the assay with rat islets [1] (Rp-8-Br-cAMPS-pAB 10 μM vs GLP-1 5, 1, and 0.1 nM) is “blocked”. For the same compound, the “effect on second-phase GSIS in the presence of GLP-1” value in the assay with rat islets [1] (Rp-8-Br-cAMPS-pAB 10 μM, GLP-1 1 nM) is listed as “greatly reduced the amplitude of second-phase GSIS”. In the assay on rat islets [1] (setting [6]), the “effect on first-phase GSIS in response to glucose alone” value is “blocked first-phase GSIS” and the “effect on second-phase GSIS in response to glucose alone” value is “little ability to reduce second-phase GSIS”. For the same compound, the IC50 with Epac was found to be 1400 nM.

On to GLP-1[7-36]amide (ligand), for which, in [4], the PKA activity (AKAR3 FRET reporter) in INS-1 832/13 cells is 88 pM and the rise of cAMP (H188 FRET reporter) in INS-1 832/13 cells came out at 1.9 nM.

As for `CN(C)C[C@@H]1CCn2cc(c3ccccc32)C2=C(C(=O)NC2=O)c2cn(c3ccccc23)CCO1` [LY 333531], the “block of potentiation of GSIS by GLP-1, PKC inhibitors” value with rat islets [1] is “failed to block”.

As to `COc1ccc2cc(-c3cc(-c4cc(Cl)cc(Cl)c4)nn3[C@@H](C)c3ccc(C(=O)NCCC(=O)O)cc3)ccc2c1` [MK0893], the “glucagon action at the GcgR” value with GcgR is reported as “antagonizes”. Further, in the assay on GLP-1R, the “action at the GLP-1R” value is “antagonizes”. Also, the “glucagon-stimulated insulin secretion from mouse islets” value in the assay on mouse islets was “inhibit”.

In the case of `COc1ccc2c(c1)CC[C@@H]1[C@@H]2CC[C@]2(C)[C@@H](NCCCCCCN3C(=O)C=CC3=O)CC[C@@H]12` [U73122], the “block of potentiation of GSIS by GLP-1 (1 nM), PLC inhibitor or negative control” value with rat islets [1] (GLP-1 1 nM) is “failed to block”. The “effect of PLC inhibitor or negative control alone on GSIS” value in the assay with rat islets [1] is recorded as “potentiated GSIS”.

For `CC(=O)OCOP1(=O)OCC2OC(n3cnc4c(NC(=O)c5ccccc5)ncnc43)C(O)C2O1` (centres unmarked) [6-Bnz-cAMP-AM], in the assay on rat islets [1], the “potentiation of first and second phase GSIS by cyclic nucleotide analog prodrug” value is given as “potentiated”.

As for des-His^1-Glu^9-glucagon, in the assay on rat islets [3] (des-His1-Glu9-glucagon 3 µM vs glucagon 10 nM, single experiment), the “effect on glucagon-potentiated GSIS in the gradient assay” value is listed as “not inhibited”. Besides, in the assay with rat islets [3] (des-His1-Glu9-glucagon 3 µM, single experiment), the “effect on GSIS stimulated by a glucose gradient alone” value is reported as “failed to inhibit”. Further, the “insulin secretion in response to glucose alone, perfused rat pancreas” value with rat perfused pancreas is “not reduced”.

`C=C[C@@]1(C)CC(=O)[C@]2(O)[C@@]3(C)[C@@H](O)CCC(C)(C)[C@@H]3[C@H](O)[C@H](OC(C)=O)[C@@]2(C)O1` [forskolin]: in the assay on islets, the “newcomer exocytosis during first-phase” value is recorded as “potentiates” and the “newcomer exocytosis during second-phase” value is given as “greatly increasing”.

For `CC(=O)Oc1ccc(CSP2(=O)OC[C@H]3O[C@@H](n4c(Br)nc5c(N)ncnc54)[C@H](O)[C@@H]3O2)cc1` (some centres unmarked) [Rp-8-Br-cAMPS-pAB, Rp-8-Br-cAMPS para-acetoxybenzyl (pAB) ester; membrane-permeable prodrug bioactivated by cytosolic esterases to Rp-8-Br-cAMPS], the half-maximal inhibitory concentration (IC50) with PKA [5] is 2800 nM.
